From patent US20160159940A1, “POLYDENDRONS” (The Univeristy of Liverpool, priority 2013, published 2016)

Key:
Caco-2 cells [1] = assay: ATP assay (CellTiter-Glo) of Caco-2 cells (cytotoxicity); type: cell-based
Description: (§1) Caco-2 cells were purchased from American Type Culture Collection (ATCC, USA) and maintained in Dulbecco's Modified Eagles Medium (DMEM) supplemented with 15% filtered sterile foetal bovine serum. Cells were incubated at 37° C. and 5% CO2 and were routinely sub-cultured every 4 days when 90% confluent. Cell count and viability was determined using a Countess automated cell counter (Invitrogen).
(§2) Caco-2 cells were seeded at a density of 1.0×10^4 cells/100 μl in DMEM supplemented with 15% FBS into each well of a 96 well plate (Nunclon, Denmark) and incubated at 37° C. and 5% CO2. Cells from 4 separate flasks of biological replicates of each cell type were used (N1-4) to improve statistical power. Media was then aspirated from […] and replaced with media containing each polydendron or aqueous Nile Red solution at an equivalent 1 μM Nile Red concentration then diluted 1:1 in media across the plate up to column 11. Column 12 served as a negative control and consisted of media and untreated cells. Following polydendron addition, the plates were incubated for 24 hours or 120 hours at 37° C., 5% CO2 prior to assessment of cytotoxicity.
Following incubation of treated plates for 24 h or 120 h, cells were equilibrated to room temperature for approximately 30 minutes. All but 20 μl of media was removed from each well and 20 μl CellTiter-Glo® (Promega, UK) reagent was added. All reagents were made fresh and in accordance with the manufacturer's instructions. Plates were put on an orbital shaker for 10 minutes to mix contents and allow for stabilisation of luminescence signal. Luminescence was then measured using a Tecan Genios plate reader (Tecan Magellan, Austria).

Caco-2 cell monolayers = assay: Transcellular permeability of Nile Red across Caco-2 cell monolayers; type: in vitro ADME; settings: 1 hour incubation
Description: (§3) Transwells were seeded with 3.5×10^4 cells per well and propagated to a monolayer over a 21 day period, during which media in the apical and basolateral wells was changed every other day. Trans-epithelial electrical resistance (TEER) values were monitored until they were >1300Ω. 1 μM of Nile Red polydendron or 1 μM aqueous Nile Red was added to the apical chamber of 4 wells and the basolateral chamber of 4 wells to quantify transport in both Apical to Basolateral (A>B) and Basolateral to Apical (B>A) direction and sampled on an hourly basis over a 4 h time period. Apparent permeability coefficient was then determined by the amount of compound transported over time using the equation: […]
(§4) where (dQ/dt) is the amount per time (nmol·sec^−1), A is the surface area of the filter and C0 is the starting concentration of the donor chamber (1 μM).
(§5) 100 μl of each collected sample was mixed with 900 μl acetone, vortexed, sonicated for 6 minutes and centrifuged at 13300 rpm for 3 minutes. The supernatant was completely dried in a vacuum centrifuge at 30° C. until the dry solid sample was left. This was reconstituted in 150 μl acetonitrile, transferred to a 96-well black walled, flat bottomed plate and measured for fluorescence intensity excitation wavelength 480 nm, emission wavelength 560 nm using a Tecan Genios plate reader (Tecan Magellan, Austria).

[2] = as above; type: in vitro ADME; settings: human, Caco-2, 1 hour incubation, 1 μM Nile Red, mean of biological triplicate
Description: as §3, §4, §5

Caco-2 cells [3] = assay: MTT assay of Caco-2 cells (cytotoxicity); type: cell-based
Description: as §1, §2
Following incubation of treated plates for 24 h or 120 h, 20 μl of 5 mg ml^−1 MTT reagent was added to each well and incubated for 2 hours. Subsequently, 100 μL MTT lysis buffer (50% N—N-Dimethylformamide in water containing 20% SDS, 2.5% glacial acetic acid and 2.5% hydrochloric acid, pH 4.7) was added to each well to lyse overnight at 37° C., 5% CO2. Following incubation the absorbance of each well was read using a Tecan Genosis plate reader at 560 nm (Tecan Magellan, Austria).

[4] = 24 hour incubation, range of concentrations investigated
[5] = 120 hour incubation, range of concentrations investigated

A > B/B > A ratio (Caco-2 cell monolayers): 3.7140
Papp A→B at 1 h, 1 μM ([2]; read-out: Papp Apical > Basolateral): 23.7 ×10⁻⁶ cm/s
Papp B→A at 1 h, 1 μM ([2]; read-out: Papp Basolateral > Apical): 6.38 ×10⁻⁶ cm/s
Compound: CCN(CC)c1ccc2nc3c4ccccc4c(=O)cc-3oc2c1 [aqueous Nile Red, Nile red]
ATP presence compared to untreated cells (Caco-2 cells [1]; [4]): not affected
EC50 (Caco-2 cells [1]; 120 hour incubation, FIG. 9): No EC50
viability compared to untreated cells (Caco-2 cells [1]; [5]): not affected
EC50 (Caco-2 cells [1]; Homo sapiens, Caco-2, 24 hour incubation, FIG. 8, read-out: EC50): 1950 nM
metabolic turnover of Caco-2 cells compared to untreated cells (Caco-2 cells [3]; [4]): did not affect metabolic turnover
EC50 (Caco-2 cells [3]; 120 hour incubation, FIG. 7): No EC50
viability of Caco-2 cells (Caco-2 cells [3]; [5]): did not affect the viability
EC50 (Caco-2 cells [3]; Homo sapiens, Caco-2, 24 hour incubation, FIG. 6, read-out: EC50): 1160 nM
